These molecules were tested on σ1 receptor and the μ-opiod receptor (assay: μ and σ1 dual binding: combined class from the Ki of both radioligand assays). Details: combined class for Ki-μ and Ki-σ1; transfected HEK-293 membranes (σ1), transfected CHO-K1 cell membranes (μ).
Set-up: species or system human; key to μ and σ1 dual binding: +: Both Ki-μ and Ki-σ1>=500 nM; ++: One Ki<500 nM while the other Ki is >=500 nM; +++: Both Ki-μ and Ki-σ1<500 nM; ++++: Both Ki-μ and Ki-σ1<100 nM
Procedure: To investigate binding properties of σ1 receptor ligands to human σ1 receptor, transfected HEK-293 membranes and [^3H](+)-pentazocine (Perkin Elmer, NET-1056), as the radioligand, were used. The assay was carried out with 7 μg of membrane suspension, 5 nM of [^3H](+)-pentazocine in either absence or presence of either buffer or 10 μM Haloperidol for total and non-specific binding, respectively. Binding buffer contained Tris-HCl 50 mM at pH 8. Plates were incubated at 37° C. for 120 minutes. After the incubation period, the reaction mix was then transferred to MultiScreen HTS, FC plates (Millipore), filtered and plates were washed 3 times with ice-cold 10 mM Tris-HCL (pH7.4). Filters were dried and counted at approximately 40% efficiency in a MicroBeta scintillation counter (Perkin-Elmer) using EcoScint liquid scintillation cocktail
To investigate binding properties of mu-opioid receptor ligands to human μ-opioid receptor, transfected CHO-K1 cell membranes and [^3H]-DAMGO (Perkin Elmer, ES-542-C), as the radioligand, were used. The assay was carried out with 20 μg of membrane suspension, 1 nM of [^3H]-DAMGO in either absence or presence of either buffer or 10 μM Naloxone for total and non-specific binding, respectively. Binding buffer contained Tris-HCl 50 mM, MgCl2 5 mM at pH 7.4. Plates were incubated at 27° C. for 60 minutes. After the incubation period, the reaction mix was then transferred to MultiScreen HTS, FC plates (Millipore), filtered and plates were washed 3 times with ice-cold 10 mM Tris-HCL (pH 7.4). Filters were dried and counted at approximately 40% efficiency in a MicroBeta scintillation counter (Perkin-Elmer) using EcoScint liquid scintillation cocktail.
The following scale as been adopted for representing the binding to the σ1 receptor and the μ-opiod receptor expressed as Ki: • + Both Ki-μ and Ki-σ1>=500 nM • ++ One Ki<500 nM while the other Ki is >=500 nM • +++ Both Ki-μ and Ki-σ1<500 nM • ++++ Both Ki-μ and Ki-σ1<100 nM
Oc1cccc(C2CCN(Cc3cn(-c4ncccc4O)nn3)CC2)c1 [Example 216, 2-(4-((4-(3-hydroxyphenyl)piperidin-1-yl)methyl)-1H-1,2,3-triazol-1-yl)pyridin-3-ol] was tested, and the “μ and σ1 dual binding” value was “++”.
CN(c1cccc(C2CCN(Cc3cn(-c4ccccc4)nn3)CC2)c1)S(C)(=O)=O [Example 31, N-methyl-N-(3-(1-((1-phenyl-1H-1,2,3-triazol-4-yl)methyl)piperidin-4-yl)phenyl)methanesulfonamide] was tested, and the “μ and σ1 dual binding” value was “++”.
In the case of CS(=O)(=O)Nc1cc(C2CCN(Cc3cn(Cc4ccccc4)nn3)CC2)ccc1F [Example 90, N-(5-(1-((1-benzyl-1H-1,2,3-triazol-4-yl)methyl)piperidin-4-yl)-2-fluorophenyl)methanesulfonamide], the “μ and σ1 dual binding” value is reported as “++”.
CS(=O)(=O)Nc1cccc(C2CCN(Cc3cn(Cc4cccnc4)nn3)CC2)c1 [Example 99, N-(3-(1-((1-(pyridin-3-ylmethyl)-1H-1,2,3-triazol-4-yl)methyl)piperidin-4-yl)phenyl)methanesulfonamide] was tested, and the “μ and σ1 dual binding” value was “++”.
In the case of CS(=O)(=O)Nc1cccc(C2CCN(Cc3cn([C@@H]4Cc5ccccc5[C@@H]4O)nn3)CC2)c1 [Example 97, N-(3-(1-((1-((1S,2R)-1-hydroxy-2,3-dihydro-1H-inden-2-yl)-1H-1,2,3-triazol-4-yl)methyl)piperidin-4-yl)phenyl)methanesulfonamide], the “μ and σ1 dual binding” value is reported as “++”.
With CS(=O)(=O)Nc1ccc(C(F)(F)F)c(C2CCN(Cc3cn(-c4ccccc4)nn3)CC2)c1 [Example 20, N-(3-(1-((1-phenyl-1H-1,2,3-triazol-4-yl)methyl)piperidin-4-yl)-4-(trifluoromethyl)phenyl)methanesulfonamide] the “μ and σ1 dual binding” value was “++”.
CC(c1ccccn1)n1cc(CN2CCC(c3cccc(NS(C)(=O)=O)c3)CC2)nn1 (centres unmarked) [Example 86, N-(3-(1-((1-(1-(pyridin-2-yl)ethyl)-1H-1,2,3-triazol-4-yl)methyl)piperidin-4-yl)phenyl)methanesulfonamide] was tested, and the “μ and σ1 dual binding” value was “++”.
For CCC(=O)Nc1cccc(C2CCN(Cc3cn([C@@H]4c5ccccc5C[C@H]4O)nn3)CC2)n1 [Example 204, N-(6-(1-((1-((1R,2R)-2-hydroxy-2,3-dihydro-1H-inden-1-yl)-1H-1,2,3-triazol-4-yl)methyl)piperidin-4-yl)pyridin-2-yl)propionamide], the “μ and σ1 dual binding” value was “++”.

Same assay, conditions: transfected HEK-293 membranes (σ1), transfected CHO-K1 cell membranes (μ)
Oc1cccc(C2CCN(Cc3cn(-c4cccnc4)nn3)CC2)c1 [Example 10, 3-(1-((1-(pyridin-3-yl)-1H-1,2,3-triazol-4-yl)methyl)piperidin-4-yl)phenol] showed a Ki range for both μ and σ1 (dual-binding class) of less than 500 nM.
Oc1cccc(C2CCN(Cc3cn([C@@H]4c5ccccc5C[C@@H]4O)nn3)CC2)c1 [Example 88, (1R,2S)-1-(4-((4-(3-hydroxyphenyl)piperidin-1-yl)methyl)-1H-1,2,3-triazol-1-yl)-2,3-dihydro-1H-inden-2-ol] showed a Ki range for both μ and σ1 (dual-binding class) of less than 500 nM.
CS(=O)(=O)Nc1cccc([C@@H]2CCN(Cc3cnn(-c4ccccc4)c3)C[C@@H]2O)c1 [Example 165, N-(3-((3R,4S)-3-hydroxy-1-((1-phenyl-1H-pyrazol-4-yl)methyl)piperidin-4-yl)phenyl)methanesulfonamide] showed a Ki range for both μ and σ1 (dual-binding class) of less than 500 nM.
Oc1cccc(C2CCN(Cc3cn(Cc4ncccc4Cl)nn3)CC2)c1 [Example 144, 3-(1-((1-((3-chloropyridin-2-yl)methyl)-1H-1,2,3-triazol-4-yl)methyl)piperidin-4-yl)phenol] gave a Ki range for both μ and σ1 (dual-binding class) of less than 500 nM.
Oc1cccc(C2CCN(Cc3cn(-c4cc(C(F)(F)F)ccn4)nn3)CC2)c1 [Example 157, 3-(1-((1-(4-(trifluoromethyl)pyridin-2-yl)-1H-1,2,3-triazol-4-yl)methyl)piperidin-4-yl)phenol] was tested, and the Ki range for both μ and σ1 (dual-binding class) was less than 500 nM.
In the case of Oc1ccc(Cn2cc(CN3CCC(c4cccc(O)c4)CC3)nn2)nc1 [Example 159, 6-((4-((4-(3-hydroxyphenyl)piperidin-1-yl)methyl)-1H-1,2,3-triazol-1-yl)methyl)pyridin-3-ol], the Ki range for both μ and σ1 (dual-binding class) is reported as no less than 500 nM.
In the case of OC[C@H](c1ccccc1)n1cc(CN2CCC(c3cccc(O)c3)CC2)nn1 (stereo in doubt) [Example 150, (S)-3-(1-((1-(2-hydroxy-1-phenylethyl)-1H-1,2,3-triazol-4-yl)methyl)piperidin-4-yl)phenol], the Ki range for both μ and σ1 (dual-binding class) is reported as less than 500 nM.
Work on Oc1cccc(C2CCN(Cc3cn(Cc4ccc(F)cn4)nn3)CC2)c1 [Example 133, 3-(1-((1-((5-fluoropyridin-2-yl)methyl)-1H-1,2,3-triazol-4-yl)methyl)piperidin-4-yl)phenol] yielded a Ki range for both μ and σ1 (dual-binding class) of less than 500 nM.
For Oc1cccc(C2CCN(Cc3cn(Cc4ncccc4C(F)(F)F)nn3)CC2)c1 [Example 151, 3-(1-((1-((3-(trifluoromethyl)pyridin-2-yl)methyl)-1H-1,2,3-triazol-4-yl)methyl)piperidin-4-yl)phenol], the Ki range for both μ and σ1 (dual-binding class) was less than 500 nM.
CS(=O)(=O)Nc1cccc(C2CCN(Cc3cn(-c4ccc(F)cc4)nn3)CC2)c1 [Example 16, N-(3-(1-((1-(4-fluorophenyl)-1H-1,2,3-triazol-4-yl)methyl)piperidin-4-yl)phenyl)methanesulfonamide] was tested, and the Ki range for both μ and σ1 (dual-binding class) was less than 500 nM.
Nc1cccc(C2CCN(Cc3cn(-c4ccccc4)nn3)CC2)c1 [Example 94, 3-(1-((1-phenyl-1H-1,2,3-triazol-4-yl)methyl)piperidin-4-yl)aniline] gave a Ki range for both μ and σ1 (dual-binding class) of less than 100 nM.
Work on CS(=O)(=O)Nc1ccc(F)c(C2CCN(Cc3cn(-c4ccccc4)nn3)CC2)c1 [Example 18, N-(4-fluoro-3-(1-((1-phenyl-1H-1,2,3-triazol-4-yl)methyl)piperidin-4-yl)phenyl)methanesulfonamide] yielded a Ki range for both μ and σ1 (dual-binding class) of less than 100 nM.
In the case of CC(C)S(=O)(=O)Nc1cccc(C2CCN(Cc3cn(-c4ccccc4F)nn3)CC2)n1 [Example 208, N-(6-(1-((1-(2-fluorophenyl)-1H-1,2,3-triazol-4-yl)methyl)piperidin-4-yl)pyridin-2-yl)propane-2-sulfonamide], the Ki range for both μ and σ1 (dual-binding class) is reported as less than 500 nM.
Work on CO[C@@H]1Cc2ccccc2[C@H]1n1cc(CN2CCC(c3cccc(O)c3)CC2)nn1 [Example 61, 3-(1-((1-((1R,2R)-2-methoxy-2,3-dihydro-1H-inden-1-yl)-1H-1,2,3-triazol-4-yl)methyl)piperidin-4-yl)phenol] yielded a Ki range for both μ and σ1 (dual-binding class) of less than 100 nM.
Oc1cccc(C2CCN(Cc3cnn(Cc4ncccc4F)c3)CC2)c1 [Example 172, 3-(1-((1-((3-fluoropyridin-2-yl)methyl)-1H-pyrazol-4-yl)methyl)piperidin-4-yl)phenol] was tested, and the Ki range for both μ and σ1 (dual-binding class) was less than 500 nM.
Cc1ccc2cc(-n3cc(CN4CCC(c5cccc(O)c5)CC4)nn3)ccc2n1 [Example 233, 3-(1-((1-(2-methylquinolin-6-yl)-1H-1,2,3-triazol-4-yl)methyl)piperidin-4-yl)phenol] gave a Ki range for both μ and σ1 (dual-binding class) of less than 500 nM.
Oc1cccc(C2CCN(Cc3cn(Cc4cccc(F)n4)nn3)CC2)c1 [Example 132, 3-(1-((1-((6-fluoropyridin-2-yl)methyl)-1H-1,2,3-triazol-4-yl)methyl)piperidin-4-yl)phenol] was tested, and the Ki range for both μ and σ1 (dual-binding class) was less than 500 nM.
Molecule Oc1cccc(C2CCN(Cc3cn(-c4ccc(Cl)c(Cl)c4)nn3)CC2)c1 [Example 40, 3-(1-((1-(3,4-dichlorophenyl)-1H-1,2,3-triazol-4-yl)methyl)piperidin-4-yl)phenol] has a Ki range for both μ and σ1 (dual-binding class) of less than 100 nM.
